The results in this text go back to patent US12268739B2, “Use of toll-like receptor 2 (TLR-2) agonist for modulating human immune response” (Children's Medical Center Corporation, priority 2018, dated 2025).

The test system of one assay is C57BL/6 mice. In words: Mouse immunization with rHA, anti-rHA IgG titers by ELISA. It is filed as in vivo. To be noted: adult C57BL/6 mice, rHA formulated with compound (100 nmol) i.m., prime Day 0, boost Day 28, versus rHA alone; listed as 080. On the procedure:
C57BL/6 mice were obtained from Charles River Laboratories and housed in specific pathogen-free conditions in the animal research facilities at Boston Children's Hospital.
For immunization experiments, adult mice were immunized intramuscularly (i.m.) in the right posterior thigh with 50 μl of vaccine containing 0.33 μg of each of the following recombinant influenza virus hemagglutinins (rHA): A/Michigan/45/2015 (H1N1), A/Hong Kong/4801/2014 (H3N2), and B/Brisbane/60/2008, contained in the 2016-2017 formulation of the FluBlok vaccine (Protein Sciences Corp.). Mice were immunized with a prime-boost schedule (two injections four weeks apart). Vaccine in all experimental groups was formulated with 10% (v/v) DMSO (except for the groups immunized with the small molecules since they were dissolved in DMSO) and 5% (v/v) Tween-80. As indicated for specific experimental groups, vaccine was also formulated with Aluminium hydroxide (100 μg) or compound 080 (100 nmol, final DMSO concentration 10%). Serum was collected 28 days post-prime (pre-boost blood sample) and 14 days post-boost for antibody detection. rHA-specific IgG were quantified by ELISA. […] The optical density was read at 450 nm Versamax microplate reader with SoftMax Pro Version 5 (both from Molecular Devices) and endpoint titers were calculated using as cutoff three times the optical density of the background.
(In general: An ELISA detects its analyte on a solid surface through an enzyme-linked reagent.)

The next assay addresses T1, human TLR8 (Homo sapiens, UniProt Q9NR97).
T1 construct: host or cells: HEK293 cells with an NF-kB-responsive SEAP reporter gene
T1 sequence (Q9NR97 27-1041): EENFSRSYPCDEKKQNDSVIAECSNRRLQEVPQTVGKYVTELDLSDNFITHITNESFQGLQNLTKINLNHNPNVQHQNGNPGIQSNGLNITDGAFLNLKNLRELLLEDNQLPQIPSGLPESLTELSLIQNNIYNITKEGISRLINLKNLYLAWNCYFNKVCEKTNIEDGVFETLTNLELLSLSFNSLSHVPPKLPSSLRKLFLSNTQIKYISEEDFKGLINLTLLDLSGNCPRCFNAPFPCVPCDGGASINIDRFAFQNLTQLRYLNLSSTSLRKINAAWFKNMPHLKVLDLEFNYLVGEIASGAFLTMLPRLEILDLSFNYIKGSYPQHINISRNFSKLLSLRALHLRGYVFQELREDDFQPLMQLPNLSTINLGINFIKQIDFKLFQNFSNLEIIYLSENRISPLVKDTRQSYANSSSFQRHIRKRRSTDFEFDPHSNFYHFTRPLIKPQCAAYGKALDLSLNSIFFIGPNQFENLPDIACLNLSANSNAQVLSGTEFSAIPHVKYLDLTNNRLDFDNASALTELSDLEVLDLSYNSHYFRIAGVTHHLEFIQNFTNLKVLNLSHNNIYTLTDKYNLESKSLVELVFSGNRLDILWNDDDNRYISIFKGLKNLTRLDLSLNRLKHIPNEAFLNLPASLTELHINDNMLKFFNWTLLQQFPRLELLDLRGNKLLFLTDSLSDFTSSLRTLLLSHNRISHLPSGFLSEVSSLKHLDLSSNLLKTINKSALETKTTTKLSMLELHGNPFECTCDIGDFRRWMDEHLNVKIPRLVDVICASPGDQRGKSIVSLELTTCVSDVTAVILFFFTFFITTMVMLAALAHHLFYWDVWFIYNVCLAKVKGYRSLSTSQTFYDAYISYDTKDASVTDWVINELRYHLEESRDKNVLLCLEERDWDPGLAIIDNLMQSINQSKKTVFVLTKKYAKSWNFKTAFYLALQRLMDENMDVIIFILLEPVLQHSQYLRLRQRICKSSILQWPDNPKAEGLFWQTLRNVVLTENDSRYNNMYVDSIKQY
In words: HEK293 assay for human TLR8 selectivity (NF-κB/SEAP). It is filed as cell-based. To be noted: selectivity counter-assay. On the procedure: HEK293 assay for human TLR2 and TLR8 selectivity: Human embryonic kidney (HEK) 293 cells expressing human TLR2 or TLR8 with an NF-κB-responsive secreted embryonic alkaline phosphatase (SEAP) reporter gene were obtained from Invivogen (San Diego, CA). Cells were maintained in RPMI or DMEM with 10% heat inactivated-FBS and selection antibiotics per the manufacturer's instructions. Cells were plated at 5×10^5 cells/96-well and stimulated with indicated agonist(s) for 24 hours. Supernatants were harvested and analyzed for NF-κB/SEAP activation using the QuantiBlue kit (Invivogen). Values are expressed as fold change in OD650 over vehicle-only treated samples.

The subject of the next assay is human adult PBMCs. As to the kind of experiment: Cytokine production by stimulated human adult PBMCs (ELISA / multiplex). In kind it is cell-based. On the procedure: ELISAs and Multiplex-Analyte Assays. Supernatants derived from human PBMCs stimulations were assayed by ELISA for TNF and IL-6 (ThermoFisher Scientific; Waltham, MA, USA). Cytokine and chemokine expression profiles (e.g., IFNγ, IL-9, IL-10, IL-12 (p70), IL-13, IL-1β, IL-23, IL-27, IL-28A, IL-33, IL-6, MIP-3α/CCL20, and TNF) in cell culture supernatants were measured using a customized Milliplex® Human Th17 Magnetic Bead Panel according to the manufacturer's instructions (Millipore, Chicago, IL, USA). Assays were read and analyzed on the Luminex® 100/200TM System and xPOTENT® software (Luminex, Austin, TX). A minimum threshold was set at the minimum detectable concentration for each individual assay, defined as three standard deviations above the mean background.
PBMCs were isolated from blood using a Ficoll density gradient. PBMCs either used fresh or were stored at 5×10^7 cells per vial in 1 mL RPMI containing 20% autologous plasma and 10% DMSO at −80° C. until use. […] PBMCs isolated from human adult donors or THP1-NF-κB cells were resuspended at a concentration of 10^5 cells/200 μl of RPMI supplemented with 10% of platelet-poor plasma or THP1 culture medium, respectively. […] After 24 hours of incubation (37° C., 5% CO2), plates were spun down (500×g, room temperature, 5 minutes) and supernatants were harvested for further analysis.

The mark [1] stands for this setting: human adult PBMCs, 24 hours, compounds at 100 µM (FIG. 7), ELISA, median.

Entries after “also recorded” stand apart in the source; their conditions may differ.

For the molecule `CNC(=O)c1c(NC(=O)c2ccc(S(=O)(=O)N(C)C)cc2)sc2c1CCC2` [Compound 80], the “Adjuvant activity in vivo (anti-rHA IgG titers)” value in the assay with C57BL/6 mice is “exerts adjuvant activity in vivo; also recorded: higher antibody titers; also recorded: demonstrates in vivo adjuvanticity”. At human TLR8, the “TLR8 induction in HEK TLR8 cells (SEAP)” value is recorded as “without induction of TLR8”. Further, the “Activation of human adult PBMCs” value in the assay on human adult PBMCs (384 and 96 well assay) was “induced activation”. Also, in the assay with human adult PBMCs (24 hours, 100 μM, ELISA), the “Cytokine production (TNF and IL-6) from human adult PBMCs” value is reported as “induces cytokine production”. Besides, in the assay with human adult PBMCs (setting [1]), the “Adult PBMCs (median ng/ml) IL-6 (N = 7)” value was 1.868 ng/mL and the “Adult PBMCs (median ng/ml) TNFa (N = 13)” value turned out to be 0.1958 ng/mL.
